# Results published in US12595230B2, “Substituted 6,7-dihydro-5H-benzo[7]annulene compounds and their derivatives, processes for their preparation and therapeutic uses thereof” (Sanofi, priority 2020, dated 2026).
# Molecular target: T1, ERα (Homo sapiens, UniProt P03372)
# T1 construct: host or cells: MCF7
# T1 sequence (P03372 1-595): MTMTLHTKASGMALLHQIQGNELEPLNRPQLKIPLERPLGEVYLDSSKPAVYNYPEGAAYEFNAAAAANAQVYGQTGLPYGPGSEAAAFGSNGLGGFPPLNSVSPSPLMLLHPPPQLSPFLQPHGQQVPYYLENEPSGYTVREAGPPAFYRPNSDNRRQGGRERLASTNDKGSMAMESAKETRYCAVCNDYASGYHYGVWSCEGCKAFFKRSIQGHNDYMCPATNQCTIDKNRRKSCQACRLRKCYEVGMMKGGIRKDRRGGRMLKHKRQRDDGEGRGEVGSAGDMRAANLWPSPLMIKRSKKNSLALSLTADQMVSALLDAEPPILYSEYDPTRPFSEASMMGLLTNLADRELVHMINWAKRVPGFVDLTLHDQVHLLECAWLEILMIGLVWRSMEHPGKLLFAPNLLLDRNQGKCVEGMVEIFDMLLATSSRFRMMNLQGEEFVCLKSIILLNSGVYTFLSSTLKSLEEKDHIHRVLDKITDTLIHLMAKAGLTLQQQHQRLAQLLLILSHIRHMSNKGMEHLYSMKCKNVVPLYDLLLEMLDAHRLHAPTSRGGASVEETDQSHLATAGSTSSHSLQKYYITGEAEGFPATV
# Experiment: Estrogen receptor degradation activity: breast cancer cell ERα in cell western assay (MCF7 cells)
# Type: cell-based
# Conditions: for % Degradation At 0.3 μM: 4 hours, relative to fulvestrant 0.1 μM positive control; for DC50: read-out: Degradation IC50
# Method: Test: Estrogen Receptor Degradation Activity Said test involves measuring the in vitro degradation activity of the compounds of the Table 1a. The measurements of the degradation activities were made using a breast cancer cell ERα in cell western assay as described hereunder. MCF7 cells (ATCC) were seeded in 384 wells microplate (collagen coated) at a concentration of 10000 cells/30 μL per well in red phenol free MEM alpha medium (invitrogen) containing 5% charcoal dextran striped FBS. The following day, 9 points serial 1:5 dilution of each compound was added to the cells in 2.5p L at final concentrations ranging from 0.3-0.0000018 μM (in table 2), or 0.1 μM for fulvestrant (using as positive control). At 4 hours post compound addition the cells were fixed by adding 25 μL of formalin (final concentration 5% formalin containing 0.1% triton) for 10 minutes at room temperature and then washed twice with PBS. Then, 50 μL of LI-COR blocking buffer containing 0.1% Triton was added to plate for 30 minutes at room temperature. LI-COR blocking buffer was removed and cells were incubated overnight at cold room with 50 μL anti-ER rabbit monoclonal antibody (Thermo scientific MA1-39540) diluted at 1:1000 in LI-COR blocking buffer containing 0.1% tween-20. Wells which were treated with blocking buffer but no antibody were used as background control. Wells were washed twice with PBS (0.1% tween-20) and incubated at 37° C. for 60 minutes in LI-COR (0.1% tween-20) containing goat anti-rabbit antibody Alexa 488 (1:1000) and Syto-64 a DNA dye (2 μM final concentration). Cells were then washed 3 times in PBS and scanned in ACUMEN explorer (TTP-Labtech). Integrated intensities in the green fluorescence and red fluorescence were measured to determine the levels of ERα and DNA respectively. The degradation activity with respect to estrogen receptors in this test is given by the concentration which degrades 50% of the estrogen receptor (or IC50) in nM. […] DMSO−fulvestrant)).
# [1] = 4 hours post compound addition, concentration which degrades 50% of the estrogen receptor
Structure (SMILES),% Degradation At 0.3 μM,DC50 [1],IC50 [1]
"O=C(O)c1ccc2c(c1)CCCC(c1ccc(Cl)cc1Cl)=C2c1ccc(C(F)C2CN(CCCF)C2)cc1 (single isomer, unassigned) [Example 43, 8-(2,4-dichlorophenyl)-9-(4-(fluoro(1-(3-fluoropropyl)azetidin-3-yl)methyl)phenyl)-6,7-dihydro-5H-benzo[7]annulene-3-carboxylic acid]",90%,0.4 nM,–
"Cc1cc(OC(F)F)ccc1C1=C(c2ccc(CC3CN(CCCF)C3)cc2)c2ccc(C(=O)O)cc2CCC1 [Example 20, 8-(4-(difluoromethoxy)-2-methylphenyl)-9-(4-((1-(3-fluoropropyl)azetidin-3-yl)methyl)phenyl)-6,7-dihydro-5H-benzo[7]annulene-3-carboxylic acid]",91%,0.3 nM,–
"Cc1cc(C2=C(c3ccc(Cl)cc3Cl)CCCc3cc(C(=O)O)ccc32)ccc1CC1CN(CCCF)C1.Cl [Example 48, 8-(2,4-dichlorophenyl)-9-(4-((1-(3-fluoropropyl)azetidin-3-yl)methyl)-3-methylphenyl)-6,7-dihydro-5H-benzo[7]annulene-3-carboxylic acid]",86%,0.5 nM,–
"O=C(O)c1ccc2c(c1)CCCC(c1cnccc1C(F)(F)F)=C2c1ccc(CC2CN(CCCF)C2)cc1 [Example 214, 9-(4-((1-(3-fluoropropyl)azetidin-3-yl)methyl)phenyl)-8-(4-(trifluoromethyl)pyridin-3-yl)-6,7-dihydro-5H-benzo[7]annulene-3-carboxylic acid]",86%,2.8 nM,–
"Cl.O=C(O)c1ccc2c(c1)CCCC(C1CCCC1)=C2c1ccc(CC2CN(CCCF)C2)cc1 [Example 6, 8-cyclopentyl-9-(4-((1-(3-fluoropropyl)azetidin-3-yl)methyl)phenyl)-6,7-dihydro-5H-benzo[7]annulene-3-carboxylic acid]",82%,0.8 nM,–
"Cl.O=C(O)c1ccc2c(c1)OCCC(c1ccccc1Cl)=C2c1ccc(CC2CN(CCCF)C2)cc1 [Example 49, 4-(2-chlorophenyl)-5-(4-((1-(3-fluoropropyl)azetidin-3-yl)methyl)phenyl)-2,3-dihydrobenzo[b]oxepine-8-carboxylic acid]",82%,3.4 nM,–
"CCC(CC)CC1=C(c2ccc(CC3CN(CCCF)C3)cc2)c2ccc(C(=O)O)cc2CCC1 [Example 231, 8-(2-Ethylbutyl)-9-(4-((1-(3-fluoropropyl)azetidin-3-yl)methyl)phenyl)-6,7-dihydro-5H-benzo[7]annulene-3-carboxylic Acid]",83%,0.3 nM,–
"O=C(O)c1ccc2c(c1)CCCC(c1ccccc1C(F)(F)F)=C2c1ccc(CC2(F)CN(CCCF)C2)cc1 [Example 238, 9-(4-((3-fluoro-1-(3-fluoropropyl)azetidin-3-yl)methyl)phenyl)-8-(2-(trifluoromethyl)phenyl)-6,7-dihydro-5H-benzo[7]annulene-3-carboxylic acid]",81%,1.2 nM,–
"Cc1ccc(C2=C(c3ccc(CC4CN(CCCF)C4)cc3)c3ccc(C(=O)O)cc3CCC2)c(Cl)c1.Cl [Example 7, 8-(2-chloro-4-methylphenyl)-9-(4-((1-(3-fluoropropyl)azetidin-3-yl)methyl)phenyl)-6,7-dihydro-5H-benzo[7]annulene-3-carboxylic acid]",90%,0.5 nM,–
"O=C(O)c1ccc2c(c1)CCCC(c1ccc(F)cc1C(F)(F)F)=C2c1ccc(CC2CN(CCCF)C2)cc1 [Example 26, 8-(4-fluoro-2-(trifluoromethyl)phenyl)-9-(4-((1-(3-fluoropropyl)azetidin-3-yl)methyl)phenyl)-6,7-dihydro-5H-benzo[7]annulene-3-carboxylic acid]",92%,0.3 nM,–
"O=C(O)c1ccc2c(c1)CCCC(c1c(F)cccc1C(F)(F)F)=C2c1ccc(CC2CN(CCCF)C2)cc1 [Example 31, 8-(2-fluoro-6-(trifluoromethyl)phenyl)-9-(4-((1-(3-fluoropropyl)azetidin-3-yl)methyl)phenyl)-6,7-dihydro-5H-benzo[7]annulene-3-carboxylic acid]",89%,0.3 nM,–
"O=C(O)c1ccc2c(c1)CCCC(c1cccc(Cl)c1Cl)=C2c1ccc(CC2CN(CCCF)C2)cc1 [Example 19, 8-(2,3-dichlorophenyl)-9-(4-((1-(3-fluoropropyl)azetidin-3-yl)methyl)phenyl)-6,7-dihydro-5H-benzo[7]annulene-3-carboxylic acid]",91%,0.3 nM,–
"CC(O)(c1ccc(C2=C(c3ccc(Cl)cc3Cl)CCCc3cc(C(=O)O)ccc32)cc1)C1CN(CCCF)C1.Cl (single isomer, unassigned; isomer 2) [Example 236, 8-(2,4-dichlorophenyl)-9-(4-(1-(1-(3-fluoropropyl)azetidin-3-yl)-1-hydroxyethyl)phenyl)-6,7-dihydro-5H-benzo[7]annulene-3-carboxylic Acid, Hydrochloride Isomer 2]",100%,0.4 nM,–

# Other lines, results leading:
% Degradation At 0.3 μM,DC50 [1],IC50 [1],Structure (SMILES)
83%,16.2 nM,–,"COc1c(C(=O)O)ccc2c1CCCC(c1ccc(Cl)cc1Cl)=C2c1ccc(CC2CN(CCCF)C2)cc1 [Example 271, 8-(2,4-dichlorophenyl)-9-(4-((1-(3-fluoropropyl)azetidin-3-yl)methyl)phenyl)-4-methoxy-6,7-dihydro-5H-benzo[7]annulene-3-carboxylic acid]"
85%,0.4 nM,–,"Cl.O=C(O)c1ccc2c(c1)CCCC(c1cc(F)ccc1C(F)(F)F)=C2c1ccc(CC2CN(CCCF)C2)cc1 [Example 332, 8-(5-fluoro-2-(trifluoromethyl)phenyl)-9-(4-((1-(3-fluoropropyl)azetidin-3-yl)methyl)phenyl)-6,7-dihydro-5H-benzo[7]annulene-3-carboxylic acid hydrochloride]"
87%,0.8 nM,–,"O=C(O)c1ccc2c(c1)CCCC(c1ccc(F)cc1C(F)(F)F)=C2c1ccc(CC2CN(CCC(F)(F)F)C2)cc1 [Example 258, 8-(4-fluoro-2-(trifluoromethyl)phenyl)-9-(4-((1-(3,3,3-trifluoropropyl)azetidin-3-yl)methyl)phenyl)-6,7-dihydro-5H-benzo[7]annulene-3-carboxylic acid]"
91%,0.7 nM,–,"O=C(O)c1ccc2c(c1)CCCC(c1cccc(F)c1C(F)F)=C2c1ccc(CC2CN(CCCF)C2)cc1 [Example 296, 8-(2-(difluoromethyl)-3-fluorophenyl)-9-(4-((1-(3-fluoropropyl)azetidin-3-yl)methyl)phenyl)-6,7-dihydro-5H-benzo[7]annulene-3-carboxylic acid]"
84%,–,0.2 nM,"O=C(O)c1ccc2c(c1)CCCC(c1cccc(F)c1C(F)(F)F)=C2c1ccc(CC2CN(CCC(F)F)C2)cc1 [Example 278, 9-(4-((1-(3,3-difluoropropyl)azetidin-3-yl)methyl)phenyl)-8-(3-fluoro-2-(trifluoromethyl)phenyl)-6,7-dihydro-5H-benzo[7]annulene-3-carboxylic acid]"
89%,0.4 nM,–,"Cc1c(F)ccc(C2=C(c3ccc(CC4CN(CCC(F)F)C4)cc3)c3ccc(C(=O)O)cc3CCC2)c1C [Example 285, 9-(4-((1-(3,3-difluoropropyl)azetidin-3-yl)methyl)phenyl)-8-(4-fluoro-2,3-dimethylphenyl)-6,7-dihydro-5H-benzo[7]annulene-3-carboxylic acid]"
85%,1.4 nM,–,"Oc1ccc2c(c1)CCCC(c1ccc(Cl)cc1Cl)=C2c1ccc(CC2CN(CCCF)C2)cc1 [Example 254, 8-(2,4-dichlorophenyl)-9-(4-((1-(3-fluoropropyl)azetidin-3-yl)methyl)phenyl)-6,7-dihydro-5H-benzo[7]annulen-3-ol]"
